Source: ChEMBL document CHEMBL1201862, “PubChem BioAssay data set” (2004)
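Cultured in 96-well plates, cells were exposed to test compound for 48 hours across five concentrations. Here, GI50 denotes the concentration required for 50% inhibition of growth.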 Activity calls are given as the source filed them. No stated cut-off is given here; in the data, active = GI50 up to about 1.1 µM and inactive = higher.

What was measured:
Assay in all cases: growth of human tumour cells (NCI), 48 h
786-0 = system: 786-0
A498 = system: A498
A549 = system: A549
ACHN = system: ACHN
BT-549 = system: BT-549
CAKI-1 = system: CAKI-1
CCRF-CEM = system: CCRF-CEM
COLO 205 = system: COLO 205
DU-145 = system: DU-145
EKVX = system: EKVX
HCC 2998 = system: HCC 2998
HCT-116 = system: HCT-116
HCT-15 = system: HCT-15
HL-60 = system: HL-60
HOP-62 = system: HOP-62
HOP-92 = system: HOP-92
HT-29 = system: HT-29
Hs-578T = system: Hs-578T
IGROV-1 = system: IGROV-1
K562 = system: K562
KM12 = system: KM12
LOX IMVI = system: LOX IMVI
M14 = system: M14
MCF7 = system: MCF7
MDA-MB-231 = system: MDA-MB-231
MDA-MB-435 = system: MDA-MB-435
MDA-N = system: MDA-N
MOLT-4 = system: MOLT-4
Malme-3M = system: Malme-3M
NCI-H226 = system: NCI-H226
NCI-H23 = system: NCI-H23
NCI-H460 = system: NCI-H460
NCI-H522 = system: NCI-H522
NCI/ADR-RES = system: NCI/ADR-RES
OVCAR-3 = system: OVCAR-3
OVCAR-4 = system: OVCAR-4
OVCAR-5 = system: OVCAR-5
OVCAR-8 = system: OVCAR-8
PC-3 = system: PC-3
RPMI-8226 = system: RPMI-8226
RXF 393 = system: RXF 393
SF-268 = system: SF-268
SF-295 = system: SF-295
SF-539 = system: SF-539
SK-MEL-28 = system: SK-MEL-28
SK-MEL-2 = system: SK-MEL-2
SK-MEL-5 = system: SK-MEL-5
SK-OV-3 = system: SK-OV-3
SN12C = system: SN12C
SNB-19 = system: SNB-19
SNB-75 = system: SNB-75
SW-620 = system: SW-620
T47D = system: T47D
TK-10 = system: TK-10
U-251 = system: U-251
UACC-257 = system: UACC-257
UACC-62 = system: UACC-62
UO-31 = system: UO-31
SR = system: SR

CCCSc1ccc2[nH]c(N3C(=O)/C(=C/c4ccc(SC)cc4)N=C3c3ccccc3)cc2c1
GI50 (786-0): 26.2 µM (inactive)
GI50 (A498): 26.9 µM (inactive)
GI50 (A549): 19.5 µM (inactive)
GI50 (ACHN): > 50 µM (inactive)
GI50 (BT-549): > 38.7 µM (inactive)
GI50 (CAKI-1): 38.8 µM (inactive)
GI50 (CCRF-CEM): 13.5 µM (inactive)
GI50 (COLO 205): 14.2 µM (inactive)
GI50 (DU-145): > 50 µM (inactive)
GI50 (EKVX): 18.2 µM (inactive)
GI50 (HCC 2998): 14.1 µM (inactive)
GI50 (HCT-116): 19.9 µM (inactive)
GI50 (HCT-15): 22.1 µM
GI50 (HL-60): 9.14 µM (inactive)
GI50 (HOP-62): 42.6 µM (inactive)
GI50 (HOP-92): > 50 µM (inactive)
GI50 (HT-29): 22.7 µM (inactive)
GI50 (Hs-578T): 28.1 µM (inactive)
GI50 (IGROV-1): 29.2 µM (inactive)
GI50 (K562): 0.355 µM (active)
GI50 (KM12): 11 µM (inactive)
GI50 (LOX IMVI): 35.7 µM (inactive)
GI50 (M14): 21.4 µM (inactive)
GI50 (MCF7): 14.1 µM (inactive)
GI50 (MDA-MB-231): > 50 µM (inactive)
GI50 (MDA-MB-435): 5.05 µM (inactive)
GI50 (MDA-N): 6.56 µM (inactive)
GI50 (MOLT-4): 1.87 µM (inactive)
GI50 (Malme-3M): 40.6 µM (inactive)
GI50 (NCI-H226): > 50 µM (inactive)
GI50 (NCI-H23): > 34.4 µM (inactive)
GI50 (NCI-H460): 18.3 µM (inactive)
GI50 (NCI-H522): 16.1 µM (inactive)
GI50 (NCI/ADR-RES): > 33 µM (inactive)
GI50 (OVCAR-3): 24.6 µM (inactive)
GI50 (OVCAR-4): 19.6 µM (inactive)
GI50 (OVCAR-5): > 50 µM (inactive)
GI50 (OVCAR-8): > 44.6 µM (inactive)
GI50 (PC-3): 25.9 µM (inactive)
GI50 (RPMI-8226): 242 nM (active)
GI50 (RXF 393): 19.9 µM (inactive)
GI50 (SF-268): 29.8 µM (inactive)
GI50 (SF-295): 29.7 µM (inactive)
GI50 (SF-539): 14 µM (inactive)
GI50 (SK-MEL-28): 34.3 µM (inactive)
GI50 (SK-MEL-2): 24.4 µM (inactive)
GI50 (SK-MEL-5): 10.7 µM (inactive)
GI50 (SK-OV-3): 41.5 µM (inactive)
GI50 (SN12C): > 40.5 µM (inactive)
GI50 (SNB-19): 29.1 µM (inactive)
GI50 (SNB-75): > 34.4 µM (inactive)
GI50 (SW-620): 18.5 µM (inactive)
GI50 (T47D): 32.1 µM (inactive)
GI50 (TK-10): 29 µM (inactive)
GI50 (U-251): 27.1 µM (inactive)
GI50 (UACC-257): 17.3 µM (inactive)
GI50 (UACC-62): 24.7 µM (inactive)
GI50 (UO-31): > 35.8 µM (inactive)

COC(=O)C1=C(C(=O)OC)C2(/N=C(\Nc3ccccc3)c3ccccc3)N(c3ccc(OC)cc3)CC(c3ccccc3)N2O1 (centres undefined)
GI50 (786-0): > 100 µM (inactive)
GI50 (A498): > 100 µM (inactive)
GI50 (A549): > 100 µM (inactive)
GI50 (ACHN): > 100 µM (inactive)
GI50 (BT-549): > 100 µM (inactive)
GI50 (CAKI-1): > 100 µM (inactive)
GI50 (CCRF-CEM): > 100 µM (inactive)
GI50 (COLO 205): > 100 µM (inactive)
GI50 (DU-145): > 100 µM (inactive)
GI50 (EKVX): > 100 µM (inactive)
GI50 (HCT-116): > 100 µM (inactive)
GI50 (HCT-15): > 100 µM
GI50 (HL-60): > 100 µM (inactive)
GI50 (HOP-62): > 100 µM (inactive)
GI50 (HOP-92): 53.6 µM (inactive)
GI50 (HT-29): > 100 µM (inactive)
GI50 (Hs-578T): > 100 µM (inactive)
GI50 (IGROV-1): > 100 µM (inactive)
GI50 (K562): > 100 µM (inactive)
GI50 (KM12): > 100 µM (inactive)
GI50 (LOX IMVI): > 100 µM (inactive)
GI50 (M14): > 100 µM (inactive)
GI50 (MCF7): > 100 µM (inactive)
GI50 (MDA-MB-231): > 100 µM (inactive)
GI50 (MDA-MB-435): > 100 µM (inactive)
GI50 (MDA-N): > 100 µM (inactive)
GI50 (MOLT-4): > 100 µM (inactive)
GI50 (Malme-3M): > 100 µM (inactive)
GI50 (NCI-H23): > 100 µM (inactive)
GI50 (NCI-H460): > 100 µM (inactive)
GI50 (NCI-H522): > 100 µM (inactive)
GI50 (NCI/ADR-RES): > 100 µM (inactive)
GI50 (OVCAR-3): > 100 µM (inactive)
GI50 (OVCAR-4): > 100 µM (inactive)
GI50 (OVCAR-5): > 100 µM (inactive)
GI50 (OVCAR-8): > 100 µM (inactive)
GI50 (PC-3): > 100 µM (inactive)
GI50 (RXF 393): > 100 µM (inactive)
GI50 (SF-268): > 100 µM (inactive)
GI50 (SF-295): > 100 µM (inactive)
GI50 (SF-539): > 100 µM (inactive)
GI50 (SK-MEL-28): > 100 µM (inactive)
GI50 (SK-MEL-2): > 100 µM (inactive)
GI50 (SK-MEL-5): > 100 µM (inactive)
GI50 (SK-OV-3): > 100 µM (inactive)
GI50 (SN12C): > 100 µM (inactive)
GI50 (SNB-19): > 100 µM (inactive)
GI50 (SNB-75): 32.3 µM (inactive)
GI50 (SR): > 100 µM (inactive)
GI50 (SW-620): > 100 µM (inactive)
GI50 (T47D): > 100 µM (inactive)
GI50 (TK-10): > 100 µM (inactive)
GI50 (U-251): > 100 µM (inactive)
GI50 (UACC-257): > 100 µM (inactive)
GI50 (UACC-62): > 100 µM (inactive)
GI50 (UO-31): > 100 µM (inactive)
